Consider eight compounds from US11584758B2, “RIP1K inhibitors” (Rigel Pharmaceuticals, Inc., priority 2020, dated 2023).

The structures appear in SMILES notation.

A word on the fraction unbound: it is the share of the substance not bound to proteins or other matrix. Read a low fraction unbound as little free substance.

Series [1] has as its target RIPK1 (Homo sapiens (Human), UniProt Q13546). In words: RIPK1 ADP-Glo kinase biochemical assay. The following applies: statement in words.
Method: In this example, compounds of the disclosure were evaluated using a biochemical assay using the ADP-Glo™ technology.
ADP-Glo™ (Promega, Madison, Wis., USA) reagents were thawed at ambient temperature. Kinase Detection Reagent was prepared by mixing kinase detection buffer with the lyophilized kinase detection substrate.
A 3 ml 2× working stock volume of Reaction Kinase Buffer was made containing a final concentration of 100 μM DTT and 4 mM MnCl2.
Components of RIPK1 enzyme (Rigel Pharmaceuticals, South San Francisco, Calif., USA) were thawed on ice. Diluted RIPK1 was prepared in 1× Kinase Reaction Buffer (diluted from 2× buffer) to 31 ng/well.
1.0 ul of diluted compound was added to a 384 well plate in duplicate. […] The final reaction volume was 5.0 μl.
The plate was quickly centrifuged and the reaction was incubated at 30° C. for 30 minutes. Adding 5 μl of ADP-Glo™ terminated the reaction. The plate was quickly centrifuged and the reaction was incubated at room temperature for 40 minutes. Kinase Detection Reagent was then added and incubated at room temperature for 30 minutes. The relative light unit (RLU) of kinase reaction was determined by luminescent (Luminescence 0.1s) using a Wallac Victor2 Luminometer (PerkinElmer, Waltham, Mass., USA).
The nature of series [2]: Brain free fraction in vitro. The series is classed as in vitro ADME. The following applies: rodent brain in vitro. An excerpt:
(§1) Certain embodiments of the invention provide for compound, compounds or compositions thereof to traverse the blood-brain barrier. […] Brain penetration may be assessed by evaluating brain/plasma ratio (B/P) as measured through in vivo pharmacokinetic studies in rodents and determining free fraction in rodent brain in vitro. […] Without being limited to theory, it is believed that compounds with higher brain/plasma partition ratios may be more pharmacologically active against neurological disorders. Other methods for assessing brain penetration are known to persons of ordinary skill in the art. See, for example, Liu, X. et al., J. Pharmacol. Exp. Therap., 325:349-56, 2008. […]. In this method, the passive membrane permeability (Papp) and the P-gp (P-glycoprotein) substrate efflux potential are determined using a MDCKII-MDR1 cell line as an in vitro model of the effective permeability of a compound through the BBB.
Brain free fraction is a predictive marker for assessing potential for potential therapeutics in the CNS. See, Read K. D.; Braggio S. Assessing brain free fraction in early drug discovery. Expert. Opin. Drug. Metab. Toxicol. 2010, 6, 337-344.
Determination of brain free fraction is known such that those of skill in the art could determine the brain free fraction for additional compounds disclosed herein. See, Srinivas, Nithya et al. “Clinical Pharmacokinetics and Pharmacodynamics of Drugs in the Central Nervous System.” Clinical pharmacokinetics vol. 57, 9 (2018): 1059-1074. doi:10.1007/s40262-018-0632-y.

A short description of series [3]: Brain/plasma ratio from in vivo pharmacokinetic studies. The following applies: rodent, brain and plasma; in vivo pharmacokinetic studies in rodents; read-out: B/P ratio (brain/plasma ratio).
Text: as §1

Sequence of RIPK1 (Q13546 whole entry, species assumed): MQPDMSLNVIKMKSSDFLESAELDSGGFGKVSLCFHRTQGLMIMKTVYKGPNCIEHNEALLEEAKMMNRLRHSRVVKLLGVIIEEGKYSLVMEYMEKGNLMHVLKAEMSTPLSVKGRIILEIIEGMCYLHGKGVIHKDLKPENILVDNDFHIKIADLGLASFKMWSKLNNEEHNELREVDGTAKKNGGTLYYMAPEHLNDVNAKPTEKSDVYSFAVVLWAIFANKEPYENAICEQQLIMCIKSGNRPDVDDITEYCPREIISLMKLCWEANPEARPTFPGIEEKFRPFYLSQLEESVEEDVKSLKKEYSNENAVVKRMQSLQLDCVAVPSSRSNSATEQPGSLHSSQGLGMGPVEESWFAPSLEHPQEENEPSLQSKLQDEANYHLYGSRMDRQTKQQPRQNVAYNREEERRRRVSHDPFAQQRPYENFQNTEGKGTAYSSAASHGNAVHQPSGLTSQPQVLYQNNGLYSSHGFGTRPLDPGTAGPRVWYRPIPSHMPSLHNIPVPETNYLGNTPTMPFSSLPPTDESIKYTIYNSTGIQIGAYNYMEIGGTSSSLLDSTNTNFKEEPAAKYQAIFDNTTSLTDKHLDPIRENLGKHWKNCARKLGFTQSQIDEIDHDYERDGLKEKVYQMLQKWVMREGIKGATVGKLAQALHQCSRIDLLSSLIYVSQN

Turning to `CN1C(=O)[C@@H](NC(=O)c2cc(Oc3ccccc3)ccn2)COc2cc(Br)cnc21` [Compound I-6, (S)—N-(8-Bromo-5-methyl-4-oxo-2,3,4,5-tetrahydropyrido[3,2-b][1,4]oxazepin-3-yl)-4-phenoxypicolinamide], the RIP1K inhibitory activity result in series [1] is “exhibiting RIP1K inhibitory activity”.
Compound `CN1C(=O)[C@@H](NC(=O)c2cc(Oc3ccccc3)ccn2)COc2ccc(C#CC(C)(C)O)nc21` [Compound I-18, (S)—N-(7-(3-hydroxy-3-methylbut-1-yn-1-yl)-5-methyl-4-oxo-2,3,4,5-tetrahydropyrido[3,2b][1,4]oxazepin-3-yl)-4-phenoxypicolinamide] yielded a fraction unbound in series [2] of 0.027.
Still for that read-out and setting: next, `CN1C(=O)[C@@H](NC(=O)c2cc(Oc3cccc(F)c3)ccn2)COc2ccc(C#CC(C)(C)O)nc21` [Compound I-21, (S)-4-(3-fluorophenoxy)-N-(7-(3-hydroxy-3-methylbut-1-yn-1-yl)-5-methyl-4-oxo-2,3,4,5-tetrahydropyrido[3,2-b][1,4]oxazepin-3-yl)picolinamide]: 0.0219.
Consider `CN1C(=O)[C@@H](NC(=O)c2cc(Oc3ccccc3)ccn2)COc2ccc(C#CC(O)C(F)(F)F)nc21` (stereo partly drawn) [Compound I-33, N-((3S)-5-methyl-4-oxo-7-(4,4,4-trifluoro-3-hydroxybut-1-yn-1-yl)-2,3,4,5-tetrahydropyrido[3,2-b][1,4]oxazepin-3-yl)-4-phenoxypicolinamide], for which, in series [2], the fraction unbound worked out at 0.0057.
In series [2], `CN1C(=O)[C@@H](NC(=O)c2cc(Oc3ccccc3)ccn2)COc2ccc(C#CC3COC3)nc21` [Compound I-44, (S)—N-(5-methyl-7-(oxetan-3-ylethynyl)-4-oxo-2,3,4,5-tetrahydropyrido[3,2-b][1,4]oxazepin-3-yl)-4-phenoxypicolinamide] yielded a fraction unbound of 0.017. Further, in series [3], the Kp is 1.6.
For the compound `CN1C(=O)[C@@H](NC(=O)c2cc(Oc3ccccc3)ccn2)COc2ccc(C#CC(C)(N)C(F)(F)F)nc21` (stereo partly drawn) [Compound I-46, N-((3S)-7-(3-Amino-4,4,4-trifluoro-3-methylbut-1-yn-1-yl)-5-methyl-4-oxo-2,3,4,5-tetrahydropyrido[3,2-b][1,4]oxazepin-3-yl)-4-phenoxypicolinamide], in series [2], the fraction unbound turned out to be 0.0089.
Take `CN1C(=O)[C@@H](NC(=O)c2cc(Oc3ccccc3)ccn2)CCc2ccc(C#CC(C)(O)C(F)(F)F)nc21` (stereo partly drawn) [Compound I-56, N-((7S)-9-Methyl-8-oxo-2-(4,4,4-trifluoro-3-hydroxy-3-methylbut-1-yn-1-yl)-6,7,8,9-tetrahydro-5H-pyrido[2,3-b]azepin-7-yl)-4-phenoxypicolinamide]: the fraction unbound in series [2] was determined as 0.0093.
Consider `CN1C(=O)[C@@H](NC(=O)c2cc(Oc3ccccc3)ccn2)CCc2ccc(C#CC3COC3)nc21` [Compound I-58, (S)—N-(9-Methyl-2-(oxetan-3-ylethynyl)-8-oxo-6,7,8,9-tetrahydro-5H-pyrido[2,3-b]azepin-7-yl)-4-phenoxypicolinamide], for which the unbound share (fraction unbound) in series [2] was 0.0184. The Kp in series [3] was 0.44.
